Laboratory results published in patent US12529029B2, “Cell culture medium comprising small peptides” (LIFE TECHNOLOGIES CORPORATION, priority 2010, dated 2026).
Values after ≈ are worked out from the molar mass of the structure shown. Where a SMILES comes first, the peptide text is derived from it. Bridges are numbered along the chain shown (N, C = ends). Roman numbers before positions name the chains, in order.

Tests used:
[1] = physchem; assay type: physicochemical
Method: An exemplary cell culture medium containing the dipeptides alanyl tyrosine (AlaTyr) and alanyl cysteine (which forms a disulfide dimer, [AlaCys]2) was prepared. Specifically, the dipeptides, alanyl tyrosine and alanyl cysteine were added as dry powder to an aqueous basal cell culture medium containing glucose and a mixture of concentrated amino acids and mixed until dissolved. […].

[2] = 25° C., by way of comparison; cited from earlier work

Compound | solubility [1] [mg/mL] | solubility in water [2]
C[C@H](N)C(=O)N[C@@H](CSSC[C@H](NC(=O)[C@H](C)N)C(=O)O)C(=O)O [[AlaCys]2 dimer, N,N′-di-L-Alanyl-L-Cystine] (I: H-Ala-Cys-OH / II: H-Ala-Cys-OH; disulfide I:2-II:2) | ~8.7 (≈ 22.7 mM) | 
C[C@H](N)C(=O)N[C@@H](Cc1ccc(O)cc1)C(=O)O [AlaTyr, alanyl tyrosine] (H-Ala-Tyr-OH) | ~15.4 (≈ 61 mM) | 
N[C@@H](CSSC[C@H](N)C(=O)O)C(=O)O [L-Cystine] |  | about 0.11 g/L
